Experimental data: article PMC3551614 (Journal of the American Chemical Society, 2012)
“And” between values parts separate entries of the source, which are not always exact repeats. Equal entries are not always repeated. Where two headings read alike, the source gives them in different places. Marks after values point to notes of the source that are not given here. Each block holds one molecule with its values, some of them ahead of it. Numbered stars: 1 amine (or outer) side, 2 acyl side, 3 side chain; on linkers, the order of the positions; unused ones are H or OH. Bridge positions count the residues as written; N and C are the ends. Square brackets hold non-standard residues; d marks the D form. Ends that are not written are not given here. Peptide text beside a SMILES is read from it. β3hW = N[C@H](CC(=O)O)Cc1c[nH]c2ccccc12; X1 = O=C([C@H]1CNC[C@@H]1N[*:1])[*:2]; β3hE = N[C@@H](CCC(=O)O)CC(=O)O; β3hN = NC(=O)C[C@H](N)CC(=O)O; β3hL = CC(C)C[C@H](N)CC(=O)O; Nle = CCCC[C@H](N)C(=O)O

Key:
[1] = target: T1, homodimeric VEGF165 (Homo sapiens, UniProt P15692); assay: competition fluorescence polarization; format: binding
T1 sequence (P15692 1-191 isoform P15692-4): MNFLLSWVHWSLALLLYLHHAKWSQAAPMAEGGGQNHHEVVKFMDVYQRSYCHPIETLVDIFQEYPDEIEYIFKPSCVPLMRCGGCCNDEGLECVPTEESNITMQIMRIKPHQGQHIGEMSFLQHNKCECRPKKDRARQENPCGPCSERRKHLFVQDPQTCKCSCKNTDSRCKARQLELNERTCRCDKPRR

[2] = test system: human umbilical vein endothelial cells (HUVECs); assay: VEGF-induced HUVEC proliferation; settings: 10 ng/mL VEGF; tested above and below the measured Ki
[3] = toxicity control studies; settings: at the inhibitory concentrations
[4] = target: proteinase K (Parengyodontium album, UniProt P06873); assay: proteinase K degradation; settings: for stability to proteinase K relative to v114*: ratio of t1/2 to that of v114*, standard conditions
Sequence of proteinase K (P06873 106-384): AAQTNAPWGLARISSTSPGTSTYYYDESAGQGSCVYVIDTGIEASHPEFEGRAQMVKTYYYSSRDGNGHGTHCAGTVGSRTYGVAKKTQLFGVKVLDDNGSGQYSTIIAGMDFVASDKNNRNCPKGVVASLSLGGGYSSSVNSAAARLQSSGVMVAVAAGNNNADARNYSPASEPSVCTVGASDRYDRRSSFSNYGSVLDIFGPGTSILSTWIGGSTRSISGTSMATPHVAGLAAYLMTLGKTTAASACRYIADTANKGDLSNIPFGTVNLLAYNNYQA

[5] = test system: human umbilical vein endothelial cells (HUVECs); settings: cited from earlier work
[6] = target: T2, v114 (disulfide 5-15); assay: competition fluorescence polarization
T2 chain: VEPNCDIHVMWEWECFERL

[7] = target: v107; assay: competition

loss of affinity for VEGF (higher Ki) relative to v114* ([1]; ratio of Ki to Ki of v114*): 12 fold
Molecule: CCCC[C@@H]1NC(=O)[C@H](C(C)C)NC(=O)[C@H](Cc2c[nH]cn2)NC(=O)[C@H]([C@@H](C)CC)NC(=O)[C@H](CC(=O)O)NC(=O)[C@@H](NC(=O)[C@H](CC(N)=O)NC(=O)[C@@H]2CCCN2C(=O)C[C@H](CCC(=O)O)NC(=O)[C@@H](N)C(C)C)CSSC[C@@H](C(=O)N[C@@H](Cc2ccccc2)C(=O)N[C@H]2CNC[C@@H]2C(=O)N[C@@H](CCCNC(=N)N)C(=O)N[C@H](CC(N)=O)CC(C)C)NC(=O)[C@H](CCC(=O)O)NC(=O)[C@H](Cc2c[nH]c3ccccc23)NC(=O)C[C@H](CCC(=O)O)NC(=O)[C@H](Cc2c[nH]c3ccccc23)NC1=O [compound 2] (H-V[β3hE]PNCDIHV[Nle]W[β3hE]WECF[X1]R[β3hL]-NH2; disulfide 5-15; N-terminus and C-terminus assumed)

Molecule: CCCC[C@@H]1NC(=O)[C@H](C(C)C)NC(=O)[C@H](Cc2c[nH]cn2)NC(=O)[C@H]([C@@H](C)CC)NC(=O)[C@H](CC(=O)O)NC(=O)[C@@H](NC(=O)C[C@H](CC(N)=O)NC(=O)[C@@H]2CCCN2C(=O)C[C@H](CCC(=O)O)NC(=O)[C@@H](N)C(C)C)CSSC[C@@H](C(=O)N[C@@H](Cc2ccccc2)C(=O)N[C@H]2CNC[C@@H]2C(=O)N[C@@H](CCCNC(=N)N)C(=O)N[C@H](CC(N)=O)CC(C)C)NC(=O)[C@H](CCC(=O)O)NC(=O)[C@H](Cc2c[nH]c3ccccc23)NC(=O)C[C@H](CCC(=O)O)NC(=O)[C@H](Cc2c[nH]c3ccccc23)NC1=O [compound 3] (H-V[β3hE]P[β3hN]CDIHV[Nle]W[β3hE]WECF[X1]R[β3hL]-NH2; disulfide 5-15; N-terminus and C-terminus assumed)
inhibition of VEGF-stimulated HUVEC proliferation, potency in words [2]: less potent than v114* | loss of affinity for VEGF (higher Ki) relative to v114* ([1]; ratio of Ki to Ki of v114*): 27 fold and ~ 27 fold | toxicity [3]: not toxic | principal cleavage site ([4]; proteinase K, mass spectroscopic analysis): between ^nL10 and W11 | stability to proteinase K relative to v114* ([4]; proteinase K): 15 fold

Molecule: CCCC[C@@H]1NC(=O)[C@H](C(C)C)NC(=O)[C@H](Cc2c[nH]cn2)NC(=O)[C@H]([C@@H](C)CC)NC(=O)[C@H](CC(=O)O)NC(=O)[C@@H](NC(=O)C[C@H](CC(N)=O)NC(=O)[C@@H]2CCCN2C(=O)C[C@H](CCC(=O)O)NC(=O)[C@@H](N)C(C)C)CSSC[C@@H](C(=O)N[C@@H](Cc2ccccc2)C(=O)N[C@H]2CNC[C@@H]2C(=O)N[C@@H](CCCNC(=N)N)C(=O)N[C@H](CC(N)=O)CC(C)C)NC(=O)[C@H](CCC(=O)O)NC(=O)[C@H](Cc2c[nH]c3ccccc23)NC(=O)C[C@H](CCC(=O)O)NC(=O)C[C@H](Cc2c[nH]c3ccccc23)NC1=O [compound 4] (H-V[β3hE]P[β3hN]CDIHV[Nle][β3hW][β3hE]WECF[X1]R[β3hL]-NH2; disulfide 5-15; N-terminus and C-terminus assumed)
inhibition of VEGF-stimulated HUVEC proliferation, potency in words [2]: less potent than v114* | affinity for VEGF lower than that of 3 [1]: ~ 3 fold | loss of affinity for VEGF (higher Ki) relative to v114* [1]: ~ 77 fold | toxicity [3]: not toxic | resistance to proteolysis relative to 3 [4]: > 10 fold | stability to proteinase K relative to v114* ([4]; proteinase K): ~190 fold

Molecule: CC[C@H](C)[C@@H]1NC(=O)[C@H](CC(=O)O)NC(=O)[C@@H](NC(=O)[C@H](CC(N)=O)NC(=O)[C@@H]2CCCN2C(=O)[C@H](CCC(=O)O)NC(=O)[C@@H](N)C(C)C)CSSC[C@@H](C(=O)N[C@@H](Cc2ccccc2)C(=O)N[C@@H](CCC(=O)O)C(=O)N[C@@H](CCCNC(=N)N)C(=O)N[C@@H](CC(C)C)C(N)=O)NC(=O)[C@H](CCC(=O)O)NC(=O)[C@H](Cc2c[nH]c3ccccc23)NC(=O)[C@H](CCC(=O)O)NC(=O)[C@H](Cc2c[nH]c3ccccc23)NC(=O)[C@H](CCSC)NC(=O)[C@H](C(C)C)NC(=O)[C@H](Cc2c[nH]cn2)NC1=O [v114] (H-VEPNCDIHVMWEWECFERL-NH2; disulfide 5-15; N-terminus and C-terminus assumed)
inhibition of VEGF-induced HUVEC proliferation [5]: inhibits

Ki [6]: 70 nM | Ki [7]: 600 nM
B1: VEGF165 VEGF165 (protein)
chain: APMAEGGGQNHHEVVKFMDVYQRSYCHPIETLVDIFQEYPDEIEYIFKPSCVPLMRCGGCCNDEGLECVPTEESNITMQIMRIKPHQGQHIGEMSFLQHNKCECRPKKDRARQEKKSVRGKGKGQKRKRKKSRYKSWSVPCGPCSERRKHLFVQDPQTCKCSCKNTDSRCKARQLELNERTCRCDKPRR
